# Experimental data published in patent publication US11926584B2, “Methods of making bempedoic acid and compositions of the same” (Esperion Therapeutics, Inc., priority 2019, dated 2024).
# How the values were obtained:
# [1] = Dynamic vapor sorption (water sorption) of the crystalline form; format: physicochemical; details: relative humidity of 80%, temperature of 25° C., isotherm in FIG. 6
# Description: The crystalline form of the compound of formula (V) may also be characterized according to its water sorption properties. […] In certain embodiments, the crystalline form of the compound of formula (V) has a water sorption isotherm, when measured at 25° C., substantially the same as shown in FIG. 6.
# [2] = Thermogravimetric analysis (TGA) of the crystalline form; format: physicochemical; details: heated at 10° C./minute from ambient (~25° C.) to about 315° C., open platinum pans
# Description: Thermogravimetric analysis (TGA) data for the crystalline form of the compound of formula (V) were collected using a TA Discovery 550 TGA instrument. The TGA instrument was calibrated using a nickel reference standard. Samples of the crystalline form of the compound of formula (V) were placed in open platinum sample pans and heated at a rate of 10° C./minute from about ambient temperature (˜25° C.) to about 315° C.
structure (smiles),measurement,setting,value
"CC(C)(CCCCCC(O)CCCCCC(C)(C)C(=O)O)C(=O)O [compound of formula (V), 8-hydroxy-2,2,14,14-tetramethylpentadecanedioic acid]","change in mass, as determined by dynamic vapor sorption",[1],about 0.03%
same,weight loss in TGA curve,[2],negligible weight loss prior to decomposition
